In US10077258B2, “Substituted pyrimidine compounds as phosphatidylinositol 3-kinase delta inhibitor and use thereof” (NANJING SANHOME PHARMACEUTICAL CO., LTD., priority 2015, dated 2018):

Legend:
PI3Kδ = biological target: T1, PI3Kδ (Homo sapiens, UniProt O00329); experiment: In vitro kinase activity (LabChip EZ Reader mobility shift), PI3Kδ; assay type: biochemical; conditions: for IC50: kinase subtype PI3Kδ (p110δ/p85a)
T1 construct: purchased Millipore 14-604-K
Experimental: (§1) Compounds: the compounds prepared in above examples of the present invention, each of which was prepared to a concentration of 10 mM in DMSO and diluted to […], 100 nM, 10 nM, 1 nM, 0.1 nM, 0.01 nM successively.
(§2) Reagents: PI3Kα (p110α(p85a), purchased from Invitrogen, Cat.No. PV4788; PIK3Cδ (p110δ/p85a), purchased from Millipore, Cat.No. 14-604-K; PIK3Cβ (p110β), purchased from Millipore, Cat.No. 14-603-K; PIK3Cγ (pp110γ), purchased from Invitrogen, Cat.No. PR8641C; DMSO, purchased from Sigma; EDTA, purchased from Sigma; 1× kinase buffer (50 mM HEPES, pH 7.5, 0.0015% Brij-35, 10 mM MgCl2, 2 mM DTT), which was prepared before use; termination solution (100 mM HEPES, pH 7.5, 0.015% Brij-35, 0.2% Coating Reagent#3, 50 mM EDTA), which was prepared before use.
(§3) Instruments: LabChip EZ Reader purchased from Caliper, USA.
(§4) 2.1 10 μl solution of each concentration of each compound was placed into 96-well plate and 90 μl of 1× kinase buffer was added. DMSO control group and control group without kinase activity were set up, which all contained 10 μl DMSO and 90 μl of 1× kinase buffer. Each group was mixed well at room temperature for 10 min, and then 5 μl of each group was transferred to a 384-well plate.
(§5) 2.2 Kinases were dissolved in 1× kinase buffer to prepare a 2.5× kinase solution. 10 μl of 2.5× kinase solution was transferred to the 384-well plate containing compounds of different concentrations. 10 μl of 2.5× kinase solution was added to DMSO control group and 10 μl of 1× kinase buffer without kinase was added to control group without kinase activity. The plate was incubated at room temperature for 10 min.
(§6) 2.3 ATP and the polypeptide labeled with FAM were dissolved in 1× kinase buffer to prepare 2.5× substrate solution. Then 10 μl of 2.5× substrate solution was transferred to the 384-well plate and incubated at 28° C. for 1 h.
(§7) 2.4 25 μl of termination solution was added to each well to terminate the reaction.
(§8) 2.5 The plate was placed on the LabChip EZ Reader to read the data of conversion rate and inhibitory rate (1%) was calculated according to formula: I %=(Max−Com)/(Max−Min)×100, wherein Max was the conversion rate of DMSO control group, Min was the conversion rate of control group without kinase activity, Com was the conversion rate of compound treatment group. IC50 was fitted by XLfit processing of the data.

PI3Kα = biological target: T2, PI3Kα (Homo sapiens, UniProt P42336); experiment: In vitro kinase activity (LabChip EZ Reader mobility shift), PI3Kα; assay type: biochemical; conditions: kinase subtype PI3Kα (p110α/p85a)
T2 construct: purchased Invitrogen PV4788
T2 sequence (P42336 whole entry): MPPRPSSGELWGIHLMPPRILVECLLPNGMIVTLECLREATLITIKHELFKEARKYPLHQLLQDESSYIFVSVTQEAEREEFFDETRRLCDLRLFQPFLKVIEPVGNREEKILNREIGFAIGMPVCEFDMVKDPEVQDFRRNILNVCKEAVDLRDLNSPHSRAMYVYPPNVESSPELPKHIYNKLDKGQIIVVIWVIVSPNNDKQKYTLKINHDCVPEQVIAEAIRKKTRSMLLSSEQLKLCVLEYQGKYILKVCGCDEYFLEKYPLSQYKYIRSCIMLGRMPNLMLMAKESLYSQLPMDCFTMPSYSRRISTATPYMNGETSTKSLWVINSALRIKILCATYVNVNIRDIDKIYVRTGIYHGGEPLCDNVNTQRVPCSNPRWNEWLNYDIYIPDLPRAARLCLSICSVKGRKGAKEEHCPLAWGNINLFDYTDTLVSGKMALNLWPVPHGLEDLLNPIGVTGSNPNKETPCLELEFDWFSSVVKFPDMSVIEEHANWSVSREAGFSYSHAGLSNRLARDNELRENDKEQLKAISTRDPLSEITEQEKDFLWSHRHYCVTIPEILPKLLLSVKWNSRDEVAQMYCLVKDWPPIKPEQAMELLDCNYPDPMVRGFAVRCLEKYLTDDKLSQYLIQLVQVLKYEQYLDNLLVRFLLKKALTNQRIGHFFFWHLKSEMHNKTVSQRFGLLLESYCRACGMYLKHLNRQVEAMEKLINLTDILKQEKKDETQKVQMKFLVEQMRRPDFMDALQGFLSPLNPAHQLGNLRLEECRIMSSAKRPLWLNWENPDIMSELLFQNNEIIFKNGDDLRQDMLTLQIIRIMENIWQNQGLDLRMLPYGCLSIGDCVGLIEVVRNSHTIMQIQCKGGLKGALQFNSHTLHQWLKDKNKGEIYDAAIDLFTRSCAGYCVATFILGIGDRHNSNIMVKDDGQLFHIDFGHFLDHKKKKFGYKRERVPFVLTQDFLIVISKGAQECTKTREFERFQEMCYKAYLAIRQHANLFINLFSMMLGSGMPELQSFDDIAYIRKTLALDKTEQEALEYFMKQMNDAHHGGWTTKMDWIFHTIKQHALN
T2 sequence (P27986 whole entry partner): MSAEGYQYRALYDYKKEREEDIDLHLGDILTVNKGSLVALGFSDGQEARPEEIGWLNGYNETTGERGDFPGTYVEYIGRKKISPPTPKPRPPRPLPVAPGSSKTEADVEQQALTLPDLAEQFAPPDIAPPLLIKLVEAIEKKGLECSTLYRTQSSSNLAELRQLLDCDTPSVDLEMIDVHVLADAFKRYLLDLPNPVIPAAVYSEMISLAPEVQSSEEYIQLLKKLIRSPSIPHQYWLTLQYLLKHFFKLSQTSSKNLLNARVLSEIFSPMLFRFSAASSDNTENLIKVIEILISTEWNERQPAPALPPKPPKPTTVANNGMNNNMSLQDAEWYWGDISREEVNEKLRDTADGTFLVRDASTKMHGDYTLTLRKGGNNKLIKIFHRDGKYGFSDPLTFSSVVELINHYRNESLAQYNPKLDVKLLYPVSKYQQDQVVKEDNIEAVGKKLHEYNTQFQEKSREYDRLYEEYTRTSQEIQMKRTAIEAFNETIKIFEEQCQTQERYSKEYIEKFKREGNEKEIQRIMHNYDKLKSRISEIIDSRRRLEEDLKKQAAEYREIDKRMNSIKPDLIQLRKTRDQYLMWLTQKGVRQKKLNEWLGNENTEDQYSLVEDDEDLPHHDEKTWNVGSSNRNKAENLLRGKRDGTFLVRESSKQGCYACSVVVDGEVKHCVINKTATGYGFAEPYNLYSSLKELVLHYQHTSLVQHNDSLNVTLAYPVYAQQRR
Experimental: as §1, §2, §3, §4, §5, §6, §7, §8

PI3Kβ = biological target: T3, PI3Kβ (Homo sapiens, UniProt P42338); experiment: In vitro kinase activity (LabChip EZ Reader mobility shift), PI3Kβ; assay type: biochemical; conditions: kinase subtype PI3Kβ (p110β)
T3 construct: purchased Millipore 14-603-K
T3 sequence (P42338 whole entry): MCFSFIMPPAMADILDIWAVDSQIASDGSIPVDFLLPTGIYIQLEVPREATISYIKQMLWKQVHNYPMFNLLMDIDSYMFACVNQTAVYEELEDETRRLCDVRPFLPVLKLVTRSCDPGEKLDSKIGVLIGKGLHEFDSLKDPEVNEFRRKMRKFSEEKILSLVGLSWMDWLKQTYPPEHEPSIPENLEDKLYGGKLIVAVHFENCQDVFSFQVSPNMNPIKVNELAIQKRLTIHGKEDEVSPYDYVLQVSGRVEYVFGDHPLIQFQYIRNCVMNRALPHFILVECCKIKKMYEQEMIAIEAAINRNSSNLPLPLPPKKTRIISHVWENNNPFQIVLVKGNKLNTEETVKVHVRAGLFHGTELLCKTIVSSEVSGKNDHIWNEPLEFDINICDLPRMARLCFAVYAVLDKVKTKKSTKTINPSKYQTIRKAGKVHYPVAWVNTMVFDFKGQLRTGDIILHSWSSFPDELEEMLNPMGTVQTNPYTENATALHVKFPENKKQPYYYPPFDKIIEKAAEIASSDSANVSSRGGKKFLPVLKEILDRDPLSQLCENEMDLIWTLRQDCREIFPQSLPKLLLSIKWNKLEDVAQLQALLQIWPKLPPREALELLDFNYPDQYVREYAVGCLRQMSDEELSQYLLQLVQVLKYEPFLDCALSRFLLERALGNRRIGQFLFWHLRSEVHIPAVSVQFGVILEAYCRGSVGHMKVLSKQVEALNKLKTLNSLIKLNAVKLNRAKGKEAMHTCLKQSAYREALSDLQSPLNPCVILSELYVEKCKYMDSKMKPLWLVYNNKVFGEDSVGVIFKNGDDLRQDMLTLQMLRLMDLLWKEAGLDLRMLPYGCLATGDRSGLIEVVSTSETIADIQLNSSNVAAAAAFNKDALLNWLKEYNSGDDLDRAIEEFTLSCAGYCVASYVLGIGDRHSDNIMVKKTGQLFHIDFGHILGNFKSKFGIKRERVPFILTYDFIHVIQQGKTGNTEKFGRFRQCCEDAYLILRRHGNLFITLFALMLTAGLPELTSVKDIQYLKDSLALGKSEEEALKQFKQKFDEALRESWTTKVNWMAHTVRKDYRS
T3 sequence (P27986 whole entry partner): as the sequence (P27986 whole entry partner) above
Experimental: as §1, §2, §3, §4, §5, §6, §7, §8

PI3Kγ = biological target: T4, PI3Kγ (Homo sapiens, UniProt P48736); experiment: In vitro kinase activity (LabChip EZ Reader mobility shift), PI3Kγ; assay type: biochemical; conditions: kinase subtype PI3Kγ (p110γ)
T4 construct: purchased Invitrogen PR8641C
T4 sequence (P48736 whole entry): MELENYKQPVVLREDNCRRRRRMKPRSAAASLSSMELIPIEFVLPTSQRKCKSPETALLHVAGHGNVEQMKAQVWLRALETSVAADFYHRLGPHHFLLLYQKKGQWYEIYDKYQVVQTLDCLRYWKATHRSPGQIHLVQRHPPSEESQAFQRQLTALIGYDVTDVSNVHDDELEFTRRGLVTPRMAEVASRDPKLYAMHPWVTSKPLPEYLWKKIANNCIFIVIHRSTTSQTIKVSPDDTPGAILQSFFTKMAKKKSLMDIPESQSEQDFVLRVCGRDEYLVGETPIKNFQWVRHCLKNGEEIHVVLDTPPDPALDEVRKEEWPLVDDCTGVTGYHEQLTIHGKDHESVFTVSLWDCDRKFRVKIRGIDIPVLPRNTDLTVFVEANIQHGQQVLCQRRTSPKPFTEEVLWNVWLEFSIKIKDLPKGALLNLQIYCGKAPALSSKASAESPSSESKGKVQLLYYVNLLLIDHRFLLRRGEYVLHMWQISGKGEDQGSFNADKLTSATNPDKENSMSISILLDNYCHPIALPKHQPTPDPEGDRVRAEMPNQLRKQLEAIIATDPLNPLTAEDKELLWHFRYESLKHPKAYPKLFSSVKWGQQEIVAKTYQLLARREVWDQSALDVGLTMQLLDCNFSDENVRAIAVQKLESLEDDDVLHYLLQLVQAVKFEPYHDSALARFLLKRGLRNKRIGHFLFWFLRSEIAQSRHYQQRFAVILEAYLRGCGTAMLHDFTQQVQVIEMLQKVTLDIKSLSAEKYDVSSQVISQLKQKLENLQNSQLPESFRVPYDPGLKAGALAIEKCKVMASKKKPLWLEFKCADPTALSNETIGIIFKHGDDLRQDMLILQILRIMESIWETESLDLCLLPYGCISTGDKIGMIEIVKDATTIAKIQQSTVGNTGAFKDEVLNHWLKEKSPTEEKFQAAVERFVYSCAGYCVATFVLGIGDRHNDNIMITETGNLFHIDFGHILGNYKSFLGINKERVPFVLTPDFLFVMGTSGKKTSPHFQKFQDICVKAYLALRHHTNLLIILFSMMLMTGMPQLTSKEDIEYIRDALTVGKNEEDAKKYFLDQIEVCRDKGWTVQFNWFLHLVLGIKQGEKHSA
Experimental: as §1, §2, §3, §4, §5, §6, §7, §8

SU-DHL-5 lymphoma cells = experiment: In vitro cell activity, CellTiter-Glo cell viability, SU-DHL-5; assay type: cell-based; conditions: Homo sapiens, SU-DHL-5 lymphoma cell line, 72 h
Experimental: Compounds: the compounds prepared in above examples of the present invention, each of which was prepared to a concentration of 10 mM in DMSO and diluted 3 times to 20000.00 nM, 6666.67 nM, 2222.22 nM, 740.74 nM, 246.91 nM, 27.43 nM, 9.14 nM, 3.05 nM successively.
The lymphoma cell lines SU-DHL-5 and SU-DHL-6 were purchased from the American Type Culture Collection (ATCC).
Reagents: PRMI-1640, purchased from Invitrogen (USA); FBS, purchased from Invitrogen (USA); EDTA, purchased from Sigma (USA); CellTiter-Glo® Luminescent Cell Viability Assay Kit, purchased from Progema (USA); Backseal membrane, purchased from Perkin Elmer (USA).
The cells were thawed in a 37° C. water bath and then transferred to 15 ml preheated medium. The cells were centrifuged at 1000 rpm for 5 min and the medium was discarded. The cells were resuspended in 15 ml fresh medium and transferred to T75 culture flask and incubated in an incubator at 37° C. with 5% CO2. The medium was replaced with fresh medium 24 h later.
The resuscitated cells above were transferred to a 50 ml sterile centrifuge tube and centrifuged at 1000 rpm for 5 min. The medium was discarded, and the cells were dispersed uniformly and counted. The appropriate cell concentration was adjusted in 15 ml fresh medium and added to T75 culture flask. The flask was incubated in an incubator at 37° C. with 5% CO2.
When the cells in the T75 culture flask grew to 1×10^5˜1×10^6 cells/ml, the cells were resuspended with fresh medium (RPMI-1640+20% FBS) and counted. The resuspended cells were adjusted to the following eight concentrations: 1×10^4 cells/ml, 2×10^4 cells/ml, 3×10^4 cells/ml, 5×10^4 cells/ml, 8×10^4 cells/ml, 1×10^5 cells/ml, 1.5×10^5 cells/ml, and 2×10^5 cells/ml. The above cell suspensions were added to 96-well cell culture plate, 100 μl each well (1×10^3 cells/ml, 2×10^3 cells/ml, 3×10^3 cells/ml, 5×10^3 cells/ml, 8×10^3 cells/ml, 1×10^4 cells/ml, 1.5×10^4 cells/ml, and 2×10^4 cells/ml, respectively). Each concentration was done double in three plates. 72 h later, 100 μl CellTiter-Glo® Luminescent Cell Viability Assay buffer was added to test wells and shaken gently. 10 min later, the Assay plate was attached at the bottom by Backseal membrane and placed on Envison to detect the fluorescence reading. Cell survive (%) was calculated according to the formula: cell survive (%)=(Com−Min)/(Max−Min), wherein Max was the reading of solvent control group, Min was the reading of control group without cells, and Com was the reading of compound treatment group.

T1 sequence (O00329 whole entry): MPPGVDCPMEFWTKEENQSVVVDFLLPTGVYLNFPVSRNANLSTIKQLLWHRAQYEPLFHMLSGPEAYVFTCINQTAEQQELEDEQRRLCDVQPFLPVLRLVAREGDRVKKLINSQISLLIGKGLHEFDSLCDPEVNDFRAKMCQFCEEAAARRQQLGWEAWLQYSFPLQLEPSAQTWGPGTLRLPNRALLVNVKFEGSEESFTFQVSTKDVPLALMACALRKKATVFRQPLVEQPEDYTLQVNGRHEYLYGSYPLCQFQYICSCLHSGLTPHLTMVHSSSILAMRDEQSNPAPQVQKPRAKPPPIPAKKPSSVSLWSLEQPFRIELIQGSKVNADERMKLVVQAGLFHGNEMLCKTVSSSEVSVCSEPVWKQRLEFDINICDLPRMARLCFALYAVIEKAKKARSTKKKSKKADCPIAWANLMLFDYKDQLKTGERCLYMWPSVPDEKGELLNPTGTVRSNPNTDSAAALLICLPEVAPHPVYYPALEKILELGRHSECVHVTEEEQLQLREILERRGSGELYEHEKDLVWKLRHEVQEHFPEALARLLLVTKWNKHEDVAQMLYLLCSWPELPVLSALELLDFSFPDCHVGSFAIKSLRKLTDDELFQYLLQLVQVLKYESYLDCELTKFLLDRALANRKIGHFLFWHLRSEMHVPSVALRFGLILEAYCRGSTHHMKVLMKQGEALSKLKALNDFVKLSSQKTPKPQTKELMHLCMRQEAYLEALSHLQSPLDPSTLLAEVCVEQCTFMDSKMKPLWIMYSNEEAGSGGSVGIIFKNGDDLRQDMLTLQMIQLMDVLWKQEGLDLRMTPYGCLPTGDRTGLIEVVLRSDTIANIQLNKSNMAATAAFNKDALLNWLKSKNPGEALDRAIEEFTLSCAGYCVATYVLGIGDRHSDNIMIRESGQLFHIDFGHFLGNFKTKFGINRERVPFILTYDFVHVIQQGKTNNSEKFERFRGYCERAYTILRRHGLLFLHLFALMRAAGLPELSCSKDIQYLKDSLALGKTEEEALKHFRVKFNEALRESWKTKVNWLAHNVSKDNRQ
T1 sequence (P27986 whole entry partner): as the sequence (P27986 whole entry partner) above

| Structure (SMILES) | IC50 (PI3Kδ) | IC50 (PI3Kα) | IC50 (PI3Kβ) | IC50 (PI3Kγ) | IC50 (SU-DHL-5 lymphoma cells) | selectivity (PI3Kδ over the other PI3K subtypes), in words (PI3Kδ; PI3Kδ versus PI3Kα, PI3Kβ, PI3Kγ) |
| --- | --- | --- | --- | --- | --- | --- |
| CC(Nc1nc(N)nc(N)c1C#N)c1c(-c2ccccc2)n(C)c2c(Cl)cccc2c1=O (stereo not shown) [Example 27, 2,4-Diamino-5-cyano-6-((1-(8-chloro-1-methyl-4-oxo-2-phenyl-1,4-dihydroquinolin-3-yl)ethyl)amino)pyrimidine] | 1.4 nM | 39 nM | 38 nM | 11 nM |  |  |
| CC(Nc1nc(N)nc(N)c1C#N)c1c(-c2ccccc2)[nH]c2ccccc2c1=O (stereo not shown) [Example 22, 2,4-Diamino-5-cyano-6-((1-(4-oxo-2-phenyl-1,4-dihydroquinolin-3-yl)ethyl)amino)pyrimidine] | 11 nM | 675 nM | 635 nM | 60 nM |  |  |
| CC(Nc1ncnc(N)c1C#N)c1c(-c2cc(F)cc(F)c2)c(=O)c2cc(F)ccc2n1C (stereo not shown) [Comparative Example 1, 4-Amino-5-cyano-6-(1-(3-(3,5-difluorophenyl)-6-fluoro-1-methyl-4-oxo-1,4-dihydroquinoline-2-yl)ethylamino)pyrimidine, reference compound] | 20 nM |  |  |  |  | poor |
| N#Cc1c(N)ncnc1NCc1c(-c2ccccc2)[nH]c2ccccc2c1=O [Example 15] | 21 nM | > 1000 nM | > 1000 nM | > 1000 nM | 4.94 µM |  |
| CC(Nc1nc(N)nc(N)c1C#N)c1c(-c2ccccc2)n(C)c2ccccc2c1=O (stereo not shown) [Example 25, 2,4-Diamino-5-cyano-6-((1-(1-methyl-4-oxo-2-phenyl-1,4-dihydroquinolin-3-yl)ethyl)amino) pyrimidine] | 1.8 nM | 127 nM | 113 nM | 21 nM |  |  |
| CC(Nc1ncnc(N)c1C#N)c1c(-c2cccc(F)c2)n(C)c2ccccc2c1=O (stereo not shown) [Example 26, 4-Amino-5-cyano-6-((1-(1-methyl-4-oxo-2-(3-fluorophenyl)-1,4-dihydroquinolin-3-yl)ethyl)amino) pyrimidine] | 2.3 nM | > 1000 nM | 972 nM | 814 nM |  |  |
| CC(Nc1nc(N)nc(N)c1C#N)c1c(-c2cccc(F)c2)oc2ccccc2c1=O (stereo not shown) [Example 30, 2,4-Diamino-5-cyano-6-(1-(2-(3-fluorophenyl)-4-oxo-4H-chromen-3-yl)ethylamino) pyrimidine] | 3.6 nM | > 1000 nM | > 1000 nM | 155 nM |  |  |
| CC(Nc1nc(N)nc(N)c1C#N)c1c(-c2ccccc2)[nH]c2c(Cl)cccc2c1=O (stereo not shown) [Example 23, 2,4-Diamino-5-cyano-6-((1-(8-chloro-4-oxo-2-phenyl-1,4-dihydroquinolin-3-yl)ethyl)amino)pyrimidine] | 1.4 nM | 114 nM | 60 nM | 5.7 nM |  |  |
| CCC(Nc1nc(N)nc(N)c1C#N)c1c(-c2ccccc2)oc2ccccc2c1=O (stereo not shown) [Example 32, 2,4-Diamino-5-cyano-6-(1-(4-oxo-2-phenyl-4H-chromen-3-yl)propylamino) pyrimidine] | 4.8 nM | > 1000 nM | > 1000 nM | 673 nM |  |  |
| N#Cc1c(N)nc(N)nc1NCc1c(-c2ccccc2)[nH]c2c(Cl)cccc2c1=O [Example 18] | 2 nM | 336 nM | 99 nM | 61 nM | 3.4 µM |  |
| CCC(Nc1ncnc(N)c1C#N)c1c(-c2ccccc2)[nH]c2ccccc2c1=O (stereo not shown) [Example 13, 4-Amino-5-cyano-6-((1-(4-oxo-2-phenyl-1,4-dihydroquinolin-3-yl)propyl)amino)pyrimidine] | 5.8 nM | > 1000 nM | > 1000 nM | > 1000 nM | 1.11 µM |  |
| N#Cc1c(N)nc(N)nc1NCc1c(-c2ccccc2)oc2ccccc2c1=O [Example 2, 2,4-Diamino-5-cyano-6-(4-oxo-2-phenyl-4H-chromen-3-yl) methylaminopyrimidine] | 13.5 nM |  |  |  |  |  |

Other lines, results leading:

| IC50 (PI3Kδ) | IC50 (PI3Kα) | IC50 (PI3Kβ) | IC50 (PI3Kγ) | IC50 (SU-DHL-5 lymphoma cells) | selectivity (PI3Kδ over the other PI3K subtypes), in words (PI3Kδ; PI3Kδ versus PI3Kα, PI3Kβ, PI3Kγ) | Structure (SMILES) |
| --- | --- | --- | --- | --- | --- | --- |
| 6.6 nM | > 1000 nM | 385 nM | 134 nM | 1.02 µM |  | CC(Nc1nc(N)nc(N)c1C#N)c1c(-c2ccccc2)oc2c(F)cccc2c1=O (stereo not shown) [Example 8, 2,4-Diamino-5-cyano-6-(1-(8-fluoro-4-oxo-2-phenyl-4H-chromen-3-yl)ethylamino) pyrimidine] |
| 3.8 nM | 219 nM | 139 nM | 66 nM | 0.58 µM |  | CC(Nc1ncnc(N)c1C#N)c1c(-c2ccccc2)[nH]c2c(Cl)cccc2c1=O (stereo not shown) [Example 9, 4-Amino-5-cyano-6-((1-(8-chloro-4-oxo-2-phenyl-1,4-dihydroquinolin-3-yl)ethyl)amino)pyrimidine] |
| 11 nM | > 1000 nM | > 1000 nM | > 1000 nM | 0.61 µM |  | CC(Nc1ncnc(N)c1C#N)c1c(-c2ccccc2)oc2c(Cl)cccc2c1=O (stereo not shown) [Example 5, 4-Amino-5-cyano-6-(1-(8-chloro-4-oxo-2-phenyl-4H-chromen-3-yl)ethylamino) pyrimidine] |
| 9.5 nM | > 1000 nM | 881 nM | 84 nM | 1.23 µM |  | CC(Nc1nc(N)nc(N)c1C#N)c1c(-c2ccccc2)oc2c(Cl)cccc2c1=O (stereo not shown) [Example 6, 2,4-Diamino-5-cyano-6-(1-(8-chloro-4-oxo-2-phenyl-4H-chromen-3-yl)ethylamino)pyrimidine] |
| 5 nM | > 1000 nM | > 1000 nM | > 1000 nM | 1.43 µM |  | CC(Nc1ncnc(N)c1C#N)c1c(-c2ccccc2)oc2c(F)cccc2c1=O (stereo not shown) [Example 7, 4-Amino-5-cyano-6-(1-(8-fluoro-4-oxo-2-phenyl-4H-chromen-3-yl)ethylamino) pyrimidine] |
| 17 nM | > 1000 nM | > 1000 nM | > 1000 nM | 0.86 µM |  | CC(Nc1ncnc(N)c1C#N)c1c(-c2ccccc2)oc2ccccc2c1=O (stereo not shown) [Example 3, 4-Amino-5-cyano-6-(1-(4-oxo-2-phenyl-4H-chromen-3-yl)ethylamino) pyrimidine] |
